Data from ChEMBL document CHEMBL1201862, “PubChem BioAssay data set” (2004).
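Briefly, cells in 96-well plates were exposed to five compound concentrations for 48 h, and endpoints were estimated by linear interpolation. At the GI50, growth is halved.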 The source made the active and inactive calls. Cut-off read from the data, not from the text of the source: active = GI50 up to about 1.1 µM and inactive = higher.

Tests used:
Assay in all cases: NCI-60 cell line screen, 48 h
786-0 = system: 786-0
HCT-15 = system: HCT-15
K562 = system: K562
OVCAR-5 = system: OVCAR-5
U-251 = system: U-251
HOP-62 = system: HOP-62
NCI-H226 = system: NCI-H226
SF-539 = system: SF-539
MCF7 = system: MCF7
SK-MEL-28 = system: SK-MEL-28
HCT-116 = system: HCT-116
RPMI-8226 = system: RPMI-8226
DU-145 = system: DU-145
SF-268 = system: SF-268
OVCAR-8 = system: OVCAR-8
SK-MEL-5 = system: SK-MEL-5
NCI/ADR-RES = system: NCI/ADR-RES
SNB-19 = system: SNB-19
TK-10 = system: TK-10
NCI-H23 = system: NCI-H23
SK-OV-3 = system: SK-OV-3
RXF 393 = system: RXF 393
Hs-578T = system: Hs-578T
HT-29 = system: HT-29
IGROV-1 = system: IGROV-1
SR = system: SR
NCI-H522 = system: NCI-H522
UACC-62 = system: UACC-62
T47D = system: T47D
HCC 2998 = system: HCC 2998
NCI-H460 = system: NCI-H460
LOX IMVI = system: LOX IMVI
SW-620 = system: SW-620
UACC-257 = system: UACC-257
OVCAR-3 = system: OVCAR-3
MOLT-4 = system: MOLT-4
MDA-MB-435 = system: MDA-MB-435
SN12C = system: SN12C
MDA-MB-231 = system: MDA-MB-231
A549 = system: A549
KM12 = system: KM12
M14 = system: M14
CCRF-CEM = system: CCRF-CEM
HL-60 = system: HL-60
SF-295 = system: SF-295
Malme-3M = system: Malme-3M
OVCAR-4 = system: OVCAR-4
PC-3 = system: PC-3
SK-MEL-2 = system: SK-MEL-2
ACHN = system: ACHN
EKVX = system: EKVX
BT-549 = system: BT-549
SNB-75 = system: SNB-75
COLO 205 = system: COLO 205
MDA-N = system: MDA-N
CAKI-1 = system: CAKI-1
A498 = system: A498
HOP-92 = system: HOP-92
UO-31 = system: UO-31

Measured: GI50

C[C@@H](c1ccccc1)N1CN(C(=O)OCc2ccccc2)C(CO)C1=O (stereo partly drawn)
inactive: 786-0 > 100 µM | K562 84.5 µM | OVCAR-5 > 100 µM | U-251 > 100 µM | HOP-62 > 100 µM | NCI-H226 > 100 µM | SF-539 > 100 µM | MCF7 47.2 µM | SK-MEL-28 > 100 µM | HCT-116 > 100 µM | RPMI-8226 93.1 µM | DU-145 > 100 µM | SF-268 > 100 µM | OVCAR-8 > 100 µM | SK-MEL-5 > 100 µM | NCI/ADR-RES > 100 µM | SNB-19 > 100 µM | TK-10 > 100 µM | NCI-H23 > 100 µM | SK-OV-3 > 100 µM | RXF 393 61.1 µM | Hs-578T > 100 µM | HT-29 70.3 µM | IGROV-1 > 100 µM | SR > 100 µM | NCI-H522 > 100 µM | UACC-62 > 100 µM | T47D > 100 µM | HCC 2998 > 100 µM | NCI-H460 > 100 µM | LOX IMVI > 100 µM | SW-620 > 100 µM | UACC-257 95.7 µM | OVCAR-3 > 100 µM | MOLT-4 > 100 µM | MDA-MB-435 > 100 µM | SN12C > 100 µM | MDA-MB-231 87.3 µM | A549 > 100 µM | KM12 > 100 µM | M14 > 100 µM | CCRF-CEM 67 µM | HL-60 > 100 µM | SF-295 > 100 µM | Malme-3M > 100 µM | OVCAR-4 > 100 µM | PC-3 > 100 µM | SK-MEL-2 > 100 µM | ACHN > 100 µM | EKVX 71.1 µM | BT-549 > 100 µM | SNB-75 > 100 µM | COLO 205 > 100 µM | MDA-N > 100 µM | CAKI-1 > 100 µM
> 100 µM: HCT-15

COc1ccc(C2SCC(=O)N2c2ccc(-c3ccc(-n4c(-c5ccccc5)nc5ccccc5c4=O)cc3)cc2)cc1 (stereo not drawn)
44.5 µM: HCT-15
inactive: 786-0 36.1 µM | K562 30.4 µM | OVCAR-5 28.5 µM | U-251 48.5 µM | HOP-62 69.8 µM | NCI-H226 65.3 µM | SF-539 74.8 µM | MCF7 26.1 µM | SK-MEL-28 > 100 µM | HCT-116 57.9 µM | RPMI-8226 21.6 µM | DU-145 42 µM | SF-268 > 100 µM | OVCAR-8 78.7 µM | SK-MEL-5 26.9 µM | NCI/ADR-RES 96.2 µM | SNB-19 > 100 µM | TK-10 45.2 µM | NCI-H23 68.9 µM | A498 > 100 µM | SK-OV-3 > 100 µM | Hs-578T 25.9 µM | HT-29 12.7 µM | IGROV-1 62.2 µM | SR 19.5 µM | NCI-H522 30.3 µM | UACC-62 33 µM | T47D 21 µM | HCC 2998 30.1 µM | NCI-H460 34.4 µM | LOX IMVI > 100 µM | SW-620 94.4 µM | UACC-257 > 100 µM | OVCAR-3 17.5 µM | MOLT-4 31.8 µM | MDA-MB-435 49.7 µM | SN12C > 100 µM | MDA-MB-231 54.6 µM | A549 > 100 µM | KM12 21.1 µM | M14 85.7 µM | CCRF-CEM 28.6 µM | HL-60 54.3 µM | SF-295 47 µM | Malme-3M 48.2 µM | HOP-92 15.7 µM | OVCAR-4 42.4 µM | PC-3 34 µM | SK-MEL-2 26.6 µM | ACHN 70 µM | EKVX > 100 µM | BT-549 22.8 µM | UO-31 > 100 µM | COLO 205 39 µM | MDA-N 65.9 µM | CAKI-1 95.3 µM

NCCCN1CCN(CCCNc2ccc3nnn4c5ccccc5c(=O)c2c34)CC1
20.7 µM: HCT-15
inactive: 786-0 9.06 µM | K562 8.07 µM | OVCAR-5 29.6 µM | U-251 24 µM | HOP-62 13.7 µM | SF-539 13.9 µM | MCF7 16.2 µM | SK-MEL-28 > 100 µM | HCT-116 6.73 µM | RPMI-8226 21.8 µM | DU-145 14.9 µM | SF-268 31.3 µM | OVCAR-8 20 µM | SK-MEL-5 13.5 µM | NCI/ADR-RES 55 µM | SNB-19 12.8 µM | TK-10 24.9 µM | NCI-H23 14.8 µM | A498 18.6 µM | SK-OV-3 57.4 µM | Hs-578T 27.4 µM | HT-29 13.3 µM | IGROV-1 13.5 µM | SR > 100 µM | NCI-H522 11.3 µM | UACC-62 15.4 µM | T47D 30.2 µM | HCC 2998 11.9 µM | NCI-H460 18.4 µM | LOX IMVI 8.32 µM | SW-620 11 µM | UACC-257 28.2 µM | OVCAR-3 37.4 µM | MOLT-4 9.51 µM | MDA-MB-435 21.6 µM | SN12C 9.02 µM | MDA-MB-231 13.1 µM | A549 28.2 µM | M14 17.6 µM | CCRF-CEM 9.91 µM | HL-60 8.59 µM | SF-295 16.8 µM | Malme-3M 18.8 µM | HOP-92 18.8 µM | OVCAR-4 11.8 µM | PC-3 12.5 µM | SK-MEL-2 18.7 µM | ACHN 12.4 µM | EKVX 19.9 µM | BT-549 5.81 µM | UO-31 22.1 µM | SNB-75 17.7 µM | COLO 205 4.07 µM | MDA-N 16.2 µM | CAKI-1 14.6 µM

COC1OC2COC(c3ccccc3)OC2C(OC(=S)c2ccccc2)C1O (stereo not drawn)
active: SK-MEL-28 0.662 µM | EKVX 0.358 µM
inactive: K562 > 100 µM | OVCAR-5 > 100 µM | U-251 11.5 µM | HOP-62 12 µM | NCI-H226 25.1 µM | SF-539 13.2 µM | MCF7 > 100 µM | RPMI-8226 13.9 µM | DU-145 > 100 µM | SF-268 27 µM | OVCAR-8 16.9 µM | SK-MEL-5 > 100 µM | NCI/ADR-RES 15.5 µM | SNB-19 > 100 µM | TK-10 28.2 µM | NCI-H23 82.4 µM | A498 > 100 µM | SK-OV-3 19.2 µM | RXF 393 12 µM | Hs-578T 27.2 µM | HT-29 > 100 µM | IGROV-1 > 100 µM | SR > 100 µM | UACC-62 > 100 µM | T47D 1.91 µM | NCI-H460 65.9 µM | LOX IMVI 7.76 µM | SW-620 > 100 µM | UACC-257 > 100 µM | OVCAR-3 > 100 µM | MOLT-4 > 100 µM | MDA-MB-435 10.9 µM | SN12C 46.3 µM | MDA-MB-231 14.7 µM | A549 13.4 µM | M14 > 100 µM | CCRF-CEM 14.3 µM | SF-295 28.8 µM | Malme-3M 4.45 µM | HOP-92 > 100 µM | OVCAR-4 > 100 µM | PC-3 4.61 µM | SK-MEL-2 51.1 µM | ACHN 75.5 µM | BT-549 > 100 µM | UO-31 > 100 µM | COLO 205 > 100 µM | MDA-N > 100 µM | CAKI-1 41 µM
> 100 µM: HCT-15

CCOC(=O)C(NC(=O)c1ccccc1)(c1ccc(S(=O)(=O)Nc2onc(C)c2C)cc1)C(F)(F)F (stereo not drawn)
active: SK-OV-3 0.495 µM
> 100 µM: HCT-15
inactive: 786-0 > 100 µM | K562 > 100 µM | OVCAR-5 > 100 µM | U-251 > 100 µM | HOP-62 > 100 µM | NCI-H226 > 100 µM | SF-539 > 100 µM | MCF7 > 100 µM | SK-MEL-28 > 100 µM | HCT-116 > 100 µM | RPMI-8226 > 100 µM | DU-145 > 100 µM | SF-268 > 100 µM | OVCAR-8 > 100 µM | SK-MEL-5 > 100 µM | NCI/ADR-RES > 100 µM | SNB-19 > 100 µM | TK-10 > 100 µM | NCI-H23 > 100 µM | RXF 393 > 100 µM | Hs-578T > 100 µM | HT-29 > 100 µM | IGROV-1 > 100 µM | SR > 100 µM | UACC-62 > 100 µM | T47D > 100 µM | HCC 2998 > 100 µM | NCI-H460 > 100 µM | LOX IMVI > 100 µM | SW-620 > 100 µM | UACC-257 > 100 µM | OVCAR-3 > 100 µM | MOLT-4 > 100 µM | MDA-MB-435 > 100 µM | SN12C > 100 µM | MDA-MB-231 > 100 µM | A549 > 100 µM | KM12 > 100 µM | M14 > 100 µM | CCRF-CEM > 100 µM | HL-60 > 100 µM | SF-295 > 100 µM | Malme-3M > 100 µM | HOP-92 > 100 µM | OVCAR-4 > 100 µM | PC-3 > 100 µM | SK-MEL-2 > 100 µM | ACHN > 100 µM | EKVX > 100 µM | BT-549 > 100 µM | UO-31 > 100 µM | SNB-75 > 100 µM | COLO 205 > 100 µM | MDA-N > 100 µM | CAKI-1 > 100 µM
